Experimental data from patent US20230302159A1, “COMPOUNDS AND COMPOSITIONS FOR TUMOR DETECTION AND SURGICAL GUIDANCE” (Cornell University, priority 2020, published 2023).
Where “and” joins values, the source holds several entries; their conditions need not be identical. Equal entries are not always repeated. Entries after “also recorded” stand apart in the source; their conditions may differ.

Key:
[1] = Fluorescence properties of the CypH dyes at pH 5.0 and pH 7.5 (Table 2); format: physicochemical; conditions: for Ratio Intensity pH 5.0/7.5: fluorescence intensity pH 5.0 over pH 7.5
Source text: The excitation and emission maxima of CypH-1 are 760 and 777 nm, respectively. The signal intensity ratio of pH 5 over pH 7.5 was about 10. The meso-bridge ring size, lipophilicity and electro-density of CypH-1 was modified to provide better optical property. […] The best compound from this group was CypH-5 whose fluorescence ratio of pH 5.0/pH 7.5 was increased to 22. Based on this initial structure and property relationship, the second round of 10 new analogs were designed using CypH-5 as the core, focusing on modifying the electron density on the aniline ring and the indolinium ring. Various alkyl groups, such as methyl, ethyl, propyl, isopropyl and their combinations, were applied to these two positions.
The CypH analogs with other longer alkyl chains had much lower background fluorescence. […] Among them, CypH-11, which has a methyl isopropyl aniline and an isopropyl group on the indolinium ring, gave a 112-fold enhancement in fluorescence signal. CypH-11 has absorbance and emission maxima at 766 nm and 785 nm, respectively (FIG. 4) and was selected as the lead compound (vide infra).

[2] = pKa measurement by fluorescence intensity in the pH range 2.0-11.0 (plate reader); format: physicochemical; conditions: for pKa: 2 μM in 20 mM phosphate-buffered solution, pH 2.0-11.0, λex=725 nm, λem=785 nm; for pH dependency of fluorescence: different pH solutions
Procedure: (A) The structure of CypH-1 (B) Schematic diagram of the fluorescence activation of CypH-11 by protonation. […] Their fluorescence intensity in the pH range (2.0-11.0) was measured (λex=725 nm and λem=785 nm) using a plate reader. (D) Fluorescence image of CypH-11 and CypH-1 in a 96-well plate at different pHs.
Spectroscopic analysis. Stock solutions (1 mM in DMSO) of CypH-11, CypH-1, and Cy7 were stored at a −30° C. freezer and used for the following experiments. For the pKa measurement, the respective compound was diluted in 20 mM phosphate-buffered solution (PBS, pH 2.0-11.0) to a final concentration of 2 μM. The fluorescence intensity (λex=725 nm and λcm=785 nm) was measured on a plate reader (Tecan Infinite M1000 Pro), and the fluorescence images were recorded with a fluorescence imaging system (Bruker In-vivo F Pro). For the quantum yield measurement, indocyanine green (ICG, Φ=1.2% in water) was used as the standard compound. The respective compound (0.4, 0.8, 1.2, 1.6, and 2.0 μM) in PBS solutions (pH=4.0 and pH=7.4) was measured using a Cary 60 UV-Vis spectrophotometer and Cary Eclipse fluorescence spectrophotometer (Agilent). The slope of fluorescence vs absorbance was compared with that of ICG to calculate the relative quantum yield.

[3] = Absorbance and fluorescence spectra (excitation/emission maxima); format: physicochemical
[4] = tested on: OVASAHO/RFP-Luc subcutaneous tumors; experiment: In vivo fluorescence imaging of subcutaneous tumors by spraying, OVASAHO/RFP-Luc model; parameters: species or system mice; conditions: for fluorescence on tumor and normal tissue after spray: no washing; for signal to background ratio (tumor-to-muscle): 2 μM
Source text: Detection of subcutaneous tumors by spraying. To evaluate the in vivo performance of the fluorogenic probes via the “spray-and-see” technique, an OVASAHO subcutaneous tumor model was used. For a facile signal co-registration, the cells were first engineered to express red fluorescence protein (RFP). Two weeks after subcutaneous inoculating of OVASAHO/RFP-Luc cells into both flanks, the tumors reached around 5 mm in size. The skin on the tumor area was removed, then the CypH-11 or Cy7 solution (2 μM in PBS) was sprayed once onto the exposed area. The whole body fluorescence images were continuously captured at various time points without washing (FIG. 14A). The tumor tissues were conveniently delineated by their intrinsic RFP fluorescence.
Tumor models of subcutaneous implants and peritoneal implants. All animal procedures were carried out in compliance with the approved animal protocols and guidelines of the Institutional Animal Care and Use Committee at Weil Cornell Medical College. Mice (female, SCID Hairless Outbred Mouse) were purchased from Charles River (Wilmington, MA). To establish the subcutaneous implants, a suspension of OVASAHO/RFP-Luc cells (5.0×10^6) or SKOV3/GFP-Luc cells (5.0×10^6) in 100 μL PBS was inoculated into each flank of the female nude mice on both sides. After two weeks, the tumor implants grew to around 5 mm in size and were used for the spray experiment. To establish the peritoneal implants, SKOV3/GFP-Luc cells (5.0×10^6) suspended in […] were injected into the abdominal cavities of the female nude mice. After two weeks, the tumor growth was examined with an in vivo bioluminescence imaging system followed by peritoneal injection of D-luciferin potassium solution (200 μL, 15 mg/mL) for 10 min. Generally, mice bearing multiple disseminated peritoneal implants of 5 mm size in diameter were used for the experiment.
In vivo fluorescence imaging of subcutaneous tumors. Two subcutaneous tumor models (OVASAHO/RFP-Luc and SKOV3/GFP-Luc) were used to compare the imaging capability of CypH-11, CypH-1, and Cy7. Mice bearing the subcutaneous implants were anesthetized in an induction chamber using 2% isoflurane, and anesthesia was maintained with 1.5-2.0% isoflurane via a nose cone. Sterile surgical tools were used to remove skin around the tumor. The mice images were captured using an IVIS SpectrumCT System from PerkinElmer (Waltham, MA). OVASAHO/RFP-Luc and SKOV3/GFP-Luc tumors were captured under an RFP channel (Excitation: 520-550 nm and Emission: 570-590 nm) and a GFP channel (Excitation: 450-480 nm and Emission: 510 530 nm), respectively. A Cy7 channel (Excitation: 730-760 nm and Emission: 790-810 nm) was applied to evaluate the fluorescence generated by CypH-11, CypH-1, and Cy7. After skin removal, the tumor area and the background fluorescence under the Cy7 channel were measured first. Solutions of CypH-11, CypH-1, and Cy7 (2 μM each) were sprayed on the surgical area, and the fluorescence of the Cy7 channel was measured continuously at each time point (1, 3, 5, 7, 10, and 15 min). Ten, five, and three OVASAHO tumors were used to evaluate CypH-11, CypH-1, and Cy7, respectively. Six SKOV3 tumors were used to evaluate CypH-11. To evaluate the tumor-to-normal tissue ratio, the whole tumor regions and the adjacent open-skin areas were drawn, and their fluorescence intensity was acquired by the IVIS software. Tumor-to-normal tissue ratio value was calculated as the average fluorescence intensity of the tumor divided by that of the normal area. Also, tumor-bearing mice were euthanized by carbon dioxide inhalation or a high dose of isoflurane (5%). The subcutaneous tumors and the adjacent muscles were then extracted, and CypH-11 (2 μM) was sprayed onto them. Images were subsequently captured under GFP/RFP/Cy7 channels.

[5] = conditions not stated, previously published lead probe

| SMILES | Ratio Intensity pH 5.0/7.5 [1] | Ratio Intensity pH 5.0/7.5 ([1]; listed as 11) | FL Intensity pH 5.0 [1] | FL Max (nm) pH 5.0 [1] [nm] | FL Intensity pH 7.5 [1] | FL Max (nm) pH 7.5 [1] [nm] | pKa [2] | normalized fluorescence relative to that of CypH-1 ([2]; at pH 6.0-6.5, in solution) | pH dependency of fluorescence [2] | Emmax / emission maximum ([3]; 2 μM, pH 5.0 phosphate buffer) [nm] | Exmax / absorbance maximum ([3]; 2 μM, pH 5.0 phosphate buffer) | time to fluorescence plateau ([4]; 2 μM in PBS, sprayed once) [min] | fluorescence on tumor and normal tissue after spray ([4]; 2 μM sprayed) | signal to background ratio (tumor-to-muscle) ([4]; 1 min after spray) | signal to background ratio (tumor-to-muscle) ([4]; 5 min after spray) | signal to background ratio (tumor-to-muscle) ([4]; 10 min after spray) | Ratio Intensity pH 5.0/7.5 ([1]; listed as 1) | emission maximum [3, 5] [nm] | excitation maximum [3, 5] [nm] | tumor to muscle ratio over the time course ([4]; 2 μM sprayed, all time points) |
| --- | --- | --- | --- | --- | --- | --- | --- | --- | --- | --- | --- | --- | --- | --- | --- | --- | --- | --- | --- | --- |
| CC(C)N(C)c1ccc(OC2=C(/C=C/C3=[N+](C(C)C)c4ccccc4C3(C)C)CCC/C2=C\C=C2\N(C(C)C)c3ccccc3C2(C)C)cc1.[I-] [CypH-11] | 112 | 111.7 | 5028 | 790 | 45 | 785 | 6 | about 3.4 fold | low fluorescence in neutral and basic solutions, but strong fluorescence in acidic solutions | 785 | 766 nm and 765 nm | ≤ 10 | high fluorescence only on tumors but not on normal tissue | 1.3 | 1.4 | 1.5 | – | – | – | – |
| CN(C)c1ccc(OC2=C(/C=C/C3=[N+](C)c4ccccc4C3(C)C)CCC/C2=C\C=C2\N(C)c3ccccc3C2(C)C)cc1.[Cl-] [CypH-1, reference compound] | about 10 | – | 3363 | 787 | 334 | 782 | 4.7 | – | low fluorescence in neutral and basic solutions, but strong fluorescence in acidic solutions | – | – | – | failed to detect the ovarian tumors by spraying; also recorded: very poor fluorescence enhancement in both the tumor and neighboring normal tissues | – | – | – | 10.1 | 777 | 760 | around 1.0 |
